From patent publication US4490527A, “Benzo-fused heterocyclic anti-ulcer agents” (American Home Products Corporation, priority 1983, dated 1984)
Counter-ions that a name gives are not always drawn. Like-named read-outs stand apart in the source and are kept apart here. Values belong to the compound of their own block, whether it stands above or below them.

Assays:
H2 histamine receptors = H2 histamine receptors (Cavia porcellus, UniProt P47747); assay: cell-based; design: species or system guinea pig; settings: vs histamine dose-response, 32° C., pH 7.4
Experimental: The guinea pig heart atrium test is carried out as follows:
A guinea pig right atrium is suspended at 1 g. tension (isometric) in a thermostatically controlled (32° C.) tissue bath (10 ml) containing oxygenated (95% O2 ; 5% CO2) Krebs-Haenseleit buffer (pH 7.4). The tissue is allowed to stabilize over 1 hour. Individual contractions are recorded with a force-displacement transducer through a strain gauge coupler. A control dose-response curve to histamine in the above described tissue bath is obtained after which the tissue is washed 3 times and allowed to re-equilibrate to basal rate. The test compound is added to the tissue bath at the desired final concentration. Thirty minutes after addition of the compound, a fresh histamine dose response curve is again obtained. Then the response to histamine in the presence of antagonist is compared to the histamine control response. This procedure is repeated, using fresh tissues, for each concentration of antagonist tested. […] Cimetidine is used as the standard for this test.

gastric acid secretion = assay: gastric secretion in the rat, modified Shay procedure of pylorus ligation; assay type: in vivo; settings: intraduodenal, 4 h, i.d., four hours after ligation, read-out: % Inhibition (of acid output)
Experimental: The procedure for testing gastric secretion in the rat, a modification of the procedure of Shay et al., Gastroenterology, 26, 906-13 (1954) is carried out as follows: Male Charles River rats weighing 200-300 grams are deprived of food but not water for 24 hours prior to use. Water is, however, withheld during the experiment. The rats are weighed, anesthetized, and the pylorus ligated according to the method of Shay et al. Treatment or vehicle control is then administered interduodenally (i.d.). Rats are housed 2/cage and sacrificed with CO2 four hours after ligation. The stomachs are removed, rinsed, and contents emptied into a graduated centrifuge tube. The tubes are centrifuged for 20 minutes at 2,000 RPM and the volume of gastric juice recorded. Any samples obviously contaminated by feces, food or hemolysis are eliminated. An aliquot of each is frozen for later analysis of Na^+, K^+ and Cl^- concentration. The pH is measured and 1 ml. of gastric juice is titrated with 0.1N NaOH to a pH of 7.0-7.4. Titratable acid output is calculated in microequivalents and the percent inhibition of acid output is calculated as follows: [formula]

[1] = 30 min after addition, results of three experiments, read-out: pA2 Value (apparent dissociation constant of the H2 antagonist) (converted)
[2] = marked *, result of only one experiment, read-out: KB value
[3] = 30 min after addition, results of three experiments

H2 histamine receptors, sequence (P47747 whole entry): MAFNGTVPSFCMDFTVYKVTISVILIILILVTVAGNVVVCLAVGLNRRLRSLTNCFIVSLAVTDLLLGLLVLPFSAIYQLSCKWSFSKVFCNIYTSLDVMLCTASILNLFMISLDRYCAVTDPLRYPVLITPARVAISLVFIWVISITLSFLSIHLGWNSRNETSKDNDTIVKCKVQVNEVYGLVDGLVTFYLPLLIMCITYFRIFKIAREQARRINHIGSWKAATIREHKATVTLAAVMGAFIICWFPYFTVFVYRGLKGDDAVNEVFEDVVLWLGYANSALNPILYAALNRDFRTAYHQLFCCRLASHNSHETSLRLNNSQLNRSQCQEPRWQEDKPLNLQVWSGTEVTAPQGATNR

Kb (H2 histamine receptors; [1]): 25.1 nM
Compound: O=S1(=O)N=C(NCCCOc2cccc(CN3CCSCC3)c2)c2ccccc21 [Example 23, N-[3-[3-[(4-thiomorpholinyl)methyl]phenoxy]propyl]-1,2-benzisothiazol-3-amine 1,1-dioxide, hydrochloride]

Kb (H2 histamine receptors; [1]): 20 nM
Compound: O=S1(=O)N=C(NCCCOc2cccc(CN3CCCCCCC3)c2)c2ccccc21 [Example 26, N-[3-[3-[(octahydro-1(2H)-azocinyl)methyl]phenoxy]-propyl]-1,2-benzisothiazol-3-amine 1,1-dioxide, hydrochloride]

Kb (H2 histamine receptors; [1]): 50.1 nM
Compound: Cc1ccc2c(c1)C(NCCCOc1cccc(CN3CCCCC3)c1)=NS2(=O)=O [Example 10, N-[3-[3-[(1-piperidinyl)methyl]phenoxy]propyl]-5-methyl-1,2-benzisothiazol-3-amine 1,1-dioxide]

Kb (H2 histamine receptors; [1]): 79.4 nM
Compound: CN(C)Cc1cccc(OCCCNC2=NS(=O)(=O)c3ccccc32)c1 [Example 21, N-[3-[3-[(dimethylamino)methyl]phenoxy]propyl]-1,2-benzisothiazol-3-amine 1,1-dioxide, hydrochloride, hemihydrate]
inhibition in vivo at 32 mg/kg (gastric acid secretion): 72%

Kb (H2 histamine receptors; [1]): 44.7 nM
Compound: O=S1(=O)N=C(NCCCOc2cccc(CNC3CCCCC3)c2)c2ccccc21 [Example 27, N-[3-[3-[(cyclohexylamino)methyl]phenoxy]propyl]-1,2-benzisothiazol-3-amine 1,1-dioxide, hydrochloride]

Kb (H2 histamine receptors; [1]): 7.94 nM
Compound: O=S1(=O)N=C(NCCCOc2cccc(CN3CCCCC3)c2)c2ccccc21 [Example 2, N-[3-[3-[(1-piperidinyl)methyl]phenoxy]propyl]-1,2-benzisothiazol-3-amine 1,1-dioxide]

Kb (H2 histamine receptors; [1]): 20 nM
Compound: O=S1(=O)N=C(NCCCOc2cccc(CN3CCCCC3)c2)c2ccc(F)cc21 [Example 8, N-[3-[3-[(1-piperidinyl)methyl]phenoxy]propyl]-6-fluoro-1,2-benzisothiazol-3-amine 1,1-dioxide]

Kb (H2 histamine receptors; [2]): 100 nM
Compound: NC(N)=Nc1nc(CSCCNC2=NS(=O)(=O)c3cscc32)cs1 [Example 40, [4-[[[2-[(Thieno[3,4-d]Isothiazol-3-yl)Amino]Ethyl]Thio]Methyl]-2-Thiazolyl]Guanidine-S',S'-Dioxide]

Kb (H2 histamine receptors; [1]): 6.31 nM
Compound: CCCCN(CCCC)Cc1cccc(OCCCNC2=NS(=O)(=O)c3ccccc32)c1 [Example 22, N-[3-[3-[(dibutylamino)methyl]phenoxy]propyl]-1,2-benzisothiazol-3-amine 1 ,1-dioxide, hydrochloride, hemihydrate]
inhibition in vivo at 4 mg/kg (gastric acid secretion): 42%
inhibition in vivo at 8 mg/kg (gastric acid secretion; Dose 8 mg/kg): 62%
inhibition in vivo at 16 mg/kg (gastric acid secretion): 53%
inhibition in vivo at 32 mg/kg (gastric acid secretion): 68%

Kb (H2 histamine receptors; [1]): 50.1 nM
Compound: O=[N+]([O-])c1ccc2c(c1)S(=O)(=O)N=C2NCCCOc1cccc(CN2CCCCC2)c1 [Example 5, N-[3-[3-[(1-piperidinyl)methyl]phenoxy]propyl]-6-nitro-1,2-benzisothiazol-3-amine 1,1-dioxide, hydrochloride]

Kb (H2 histamine receptors; [1]): 79.4 nM
Compound: O=S1(=O)N=C(NCCCOc2cccc(CN3CCCCC3)c2)c2cc(Cl)ccc21 [Example 11, N-[3-[3-[(1-piperidinyl)methyl]phenoxy]propyl]-5-chloro-1,2-benzisothiazol-3-amine 1,1-dioxide, hydrochloride]

pA2 Value (apparent dissociation constant of the H2 antagonist) (H2 histamine receptors; [3]): < 7.0
Compound: O=S1(=O)N=C(NCCCOc2cccc(CN3CCOCC3)c2)c2ccccc21 [Example 16, N-[3-[3-(4-morpholinylmethyl)phenoxy]propyl]-1,2-benzisothiazol-3-amine 1,1-dioxide, hydrochloride]
inhibition in vivo at 32 mg/kg (gastric acid secretion): 39%

pA2 Value (apparent dissociation constant of the H2 antagonist) (H2 histamine receptors; [3]): 8.0
Compound: COc1ccc2c(c1)C(NCCCOc1cccc(CN3CCCCC3)c1)=NS2(=O)=O [Example 12, N-[3-[3-[(1-piperidinyl)methyl]phenoxy]propyl]-5-methoxy-1,2-benzisothiazol-3-amine 1,1-dioxide, 2/3 oxalate, ethanolate]

Kb (H2 histamine receptors; [1]): 69.2 nM
Compound: O=S1(=O)N=C(NCCCOc2cccc(CNCc3ccco3)c2)c2ccccc21 [Example 29, N-[3-[3-[[[(2-furanyl)methyl]amino]methyl]phenoxy]-propyl]-1,2-benzisothiazol-3amine 1,1-dioxide, hydrochloride]
inhibition in vivo at 32 mg/kg (gastric acid secretion): 50%

Kb (H2 histamine receptors; [1]): 63.1 nM
Compound: CCCCNCc1cccc(OCCCNC2=NS(=O)(=O)c3ccccc32)c1 [Example 32, N-[3-[3-[(butylamino)methyl]phenoxy]propyl]-1,2-benzisothiazol-3-amine 1,1-dioxide, hydrochloride, hemihydrate]

Kb (H2 histamine receptors; [2]): 1 nM
Compound: CN(C)Cc1ccc(CSCCNC2=NS(=O)(=O)c3cscc32)o1 [Example 39, N-[2-[[[5-[(Dimethylamino)Methyl]-2-Furanyl]Methyl]Thio]Ethyl]Thieno[3,4-d]Isothiazol-3-Amine-1,1-Dioxide]
inhibition in vivo at 16 mg/kg (gastric acid secretion): 87%

Kb (H2 histamine receptors; [1]): 63.1 nM
Compound: CC(C)CN(Cc1cccc(OCCCNC2=NS(=O)(=O)c3ccccc32)c1)CC(C)C [Example 31, N-[3-[3-[[bis(2-methylpropyl)amino]methyl]phenoxy]-propyl]-1,2-benzisothiazol-3-amine 1,1-dioxide]

Kb (H2 histamine receptors; [1]): 10 nM
Compound: CCCCCN(C)Cc1cccc(OCCCNC2=NS(=O)(=O)c3ccccc32)c1 [Example 34, N-[3-[3-[(methylpentylamino)methyl]phenoxy]propyl]-1,2-benzisothiazol-3-amine 1,1-dioxide]

Kb (H2 histamine receptors; [1]): 251 nM
Compound: O=C1N=C(NCCCOc2cccc(CN3CCCCC3)c2)c2ccccc21 [Example 4, 3-[[3-[3-[(1-piperidinyl)methyl]phenoxy]propyl]amino]-1H isoindol-1-one, dihydrochloride, quarter hydrate]

Compound: CNC(=NC#N)NCCSCc1csc(N=C(N)N)n1 [tiotidine, reference compound]
inhibition in vivo at 4 mg/kg (gastric acid secretion): 16%

Kb (H2 histamine receptors; [2]): 48 nM
Compound: CCCCN(C)Cc1cccc(OCCCNC2=NS(=O)(=O)c3ccccc32)c1 [Example 36, N-[3-[3-[(butylmethylamino)methyl]phenoxy]propyl]-1,2-benzisothiazol-3-amine 1,1-dioxide]
inhibition in vivo at 32 mg/kg (gastric acid secretion): 84%

pA2 Value (apparent dissociation constant of the H2 antagonist) (H2 histamine receptors; [3]): 6.7
Compound: O=S1(=O)N=C(NCCCOc2cccc(CN3CCCCC3)c2)c2cc(Cl)c(Cl)cc21 [Example 9, N-[3-[3-[(1-piperidinyl)methyl]phenoxy]propyl]-5,6-dichloro-1,2-benzisothiazol-3-amine 1,1-dioxide, monohydrochloride salt]

Compound: CCCCCN(CCCCC)Cc1cccc(OCCCNC2=NS(=O)(=O)c3ccccc32)c1 [Example 37, N-[3-[3-[(dipentylamino)methyl]phenoxy]propyl]-1,2-benzisothiazol-3-amine 1,1-dioxide]
inhibition in vivo at 32 mg/kg (gastric acid secretion): 38%

Kb (H2 histamine receptors; [1]): 63.1 nM
Compound: O=S1(=O)N=C(NCCCOc2cccc(CNCc3ccccc3)c2)c2ccccc21 [Example 30, N-[3-[3-[(benzylamino)methyl]phenoxy]propyl]-1,2-benzisothiazol-3-amine1,1-dioxide, hydrochloride, quarter hydrate]

Kb (H2 histamine receptors; [2]): 14 nM
Compound: CCCCN(CCC)Cc1cccc(OCCCNC2=NS(=O)(=O)c3ccccc32)c1 [Example 35, N-[3-[3-[(butylpropylamino)methyl]phenoxy]propyl]-1,2-benzisothiazol-3-amine 1,1-dioxide]
inhibition in vivo at 32 mg/kg (gastric acid secretion): 55%

Kb (H2 histamine receptors; [1]): 25.1 nM
Compound: O=S1(=O)N=C(NCCCOc2cccc(CNC3CCCC3)c2)c2ccccc21 [Example 28, N-[3-[3-[(cyclopentylamino)methyl]phenoxy]propyl]-1,2-benzisothiazol-3-amine 1,1-dioxide, hydrochloride]
inhibition in vivo at 16 mg/kg (gastric acid secretion): 75%
inhibition in vivo at 32 mg/kg (gastric acid secretion): 49%

Kb (H2 histamine receptors; [1]): 31.6 nM
Compound: O=S1(=O)N=C(NCCCOc2cccc(CN3CCCCC3)c2)c2ccc(Cl)cc21 [Example 7, N-[3-[3-[(1-piperidinyl)methyl]phenoxy]propyl]-6-chloro-1,2-benzisothiazol-3-amine 1,1-dioxide, hydrochloride salt hemihydrate]

Kb (H2 histamine receptors; [1]): 20 nM
Compound: Nc1ccc2c(c1)S(=O)(=O)N=C2NCCCOc1cccc(CN2CCCCC2)c1 [Example 6, N-[3-[3-[(1-piperidinyl)methyl]phenoxy]propyl]-6-amino-1,2-benzisothiazol-3-amine 1,1-dioxide]

Kb (H2 histamine receptors; [1]): 200 nM
Compound: CCN(CC)Cc1cccc(OCCCNC2=NS(=O)(=O)c3ccccc32)c1 [Example 19, N-[3-[3-[(diethylamino)methyl]phenoxy]propyl]-1,2-benzisothiazol-3-amine 1 ,1-dioxide, hydrochloride]
inhibition in vivo at 16 mg/kg (gastric acid secretion): 52%
inhibition in vivo at 32 mg/kg (gastric acid secretion): 78%

Kb (H2 histamine receptors; [1]): 2 nM
Compound: NC(N)=Nc1nc(CSCCNC2=NS(=O)(=O)c3ccccc32)cs1 [Example 3, [4-[[[2-[(1,2-benzisothiazol-3yl)amino]ethyl]thio]methyl]-2-thiazolyl]guanidine S',S'-dioxide]

Kb (H2 histamine receptors; [1]): 40.7 nM
Compound: O=S1(=O)N=C(NCCCOc2cccc(CN3CCSC3)c2)c2ccccc21 [Example 25, N-[3-[3-[(3-thiazolidinyl)methyl]phenoxy]propyl]-1,2-benzisothiazol-3-amine 1,1-dioxide, hydrochloride]
inhibition in vivo at 4 mg/kg (gastric acid secretion): 48%
